The record followed here is publication PMC5923142, “Selection and Characterization of Rupintrivir-Resistant Norwalk Virus Replicon Cells In Vitro” (Antimicrobial Agents and Chemotherapy, 2018).

The subject of the experiment is GII protease. Kind of experiment: Cell-based FRET assay, GII WT protease. The conditions noted are these: compared with GI and GV WT proteases, HEK293T cells. Also on record: species or system norovirus GII.4 (DQ658413). From the text:
The generation of plasmids expressing norovirus protease from GI.1 (M87661), GII.4 (DQ658413), or GV (DQ285629) norovirus and FRET assay constructs has been described previously ([18]). The plasmids carrying GI, GII, and GV proteases with the A105V, I109V, or A105V/I109V mutation were generated from the wild-type (WT) protease constructs described above by the QuikChange site-directed mutagenesis method. Mutant MNV genomes for reverse genetics were generated by two-step PCR mutagenesis of the WT MNV genome (pT7 MNV 3RZ) construct as described previously ([27]). The primers used for generation of the plasmids are listed in Tables S1 and S2 in the supplemental material.
The YFP/CFP ratio was used to determine FRET efficiency, as described previously ([18], [40]). Briefly, HEK293T cells were plated into black 96-well cell culture microplates (Greiner Bio-One) at a density of 5 × 10^4 cells/well in 100 μl of DMEM containing 10% fetal bovine serum with or without various concentrations of rupintrivir and then incubated for 4 h in a CO2 incubator at 37°C. […] The plates were then analyzed on a SpectraMax i3 instrument in fluorescence mode, with excitation set at 434 nm and the reading emissions set at 477 nm (CFP) and 527 nm (YFP). The background fluorescence from wells transfected with pcDNA3.1 was determined and subtracted. […]

For the molecule `CCOC(=O)/C=C/[C@H](C[C@@H]1CCNC1=O)NC(=O)[C@@H](CC(=O)[C@@H](NC(=O)c1cc(C)on1)C(C)C)Cc1ccc(F)cc1` [rupintrivir, Rupintrivir], the “susceptibility of the protease to rupintrivir” value was “substantially lower”.
